# Reference: PubChem BioAssay AID2060488 (Molecular Pharmacology Branch, DTP, NCI, 2025)
# System: 966289-007-R4-J1-PDC complex spheroid viability
# Experiment: Anticancer human tumor 966289-007-R4-J1-PDC patient-derived pancreatic adenocarcinoma cell line growth inhibition [GQUAD]
# Conditions: for IC50: curve of first compound; for viability, T/C: stronger effect = lower value
# In short: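 Multi-cell-type spheroids of tumor cells with HUVEC and mesenchymal stem cells, treated with drug combinations. Concentrations descend in half-log steps from near clinical Cmax, or from 10 microM where Cmax is unknown; viability read-out.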
# [1] = second compound 0.0316 µM, first compound 0.0316 µM
# [2] = second compound 0.0316 µM, first compound 0.1 µM
# [3] = second compound 0.0316 µM, first compound 0.316 µM
# [4] = second compound 0.0316 µM, first compound 1 µM
# [5] = second compound 0.0316 µM, first compound 3.16 µM
# [6] = second compound 0.0316 µM, first compound 10 µM
# [7] = second compound 0.1 µM, first compound 0.0316 µM
# [8] = second compound 0.1 µM, first compound 0.1 µM
# [9] = second compound 0.1 µM, first compound 0.316 µM
# [10] = second compound 0.1 µM, first compound 1 µM
# [11] = second compound 0.1 µM, first compound 3.16 µM
# [12] = second compound 0.1 µM, first compound 10 µM
# [13] = second compound 0.316 µM, first compound 0.0316 µM
# [14] = second compound 0.316 µM, first compound 0.1 µM
# [15] = second compound 0.316 µM, first compound 0.316 µM
# [16] = second compound 0.316 µM, first compound 1 µM
# [17] = second compound 0.316 µM, first compound 3.16 µM
# [18] = second compound 0.316 µM, first compound 10 µM
# [19] = second compound 1 µM, first compound 0.0316 µM
# [20] = second compound 1 µM, first compound 0.1 µM
# [21] = second compound 1 µM, first compound 0.316 µM
# [22] = second compound 1 µM, first compound 1 µM
# [23] = second compound 1 µM, first compound 3.16 µM
# [24] = second compound 1 µM, first compound 10 µM
# [25] = second compound 3.16 µM, first compound 0.0316 µM
# [26] = second compound 3.16 µM, first compound 0.1 µM
# [27] = second compound 3.16 µM, first compound 0.316 µM
# [28] = second compound 3.16 µM, first compound 1 µM
# [29] = second compound 3.16 µM, first compound 3.16 µM
# [30] = second compound 3.16 µM, first compound 10 µM
# [31] = second compound 10 µM, first compound 0.0316 µM
# [32] = second compound 10 µM, first compound 0.1 µM
# [33] = second compound 10 µM, first compound 0.316 µM
# [34] = second compound 10 µM, first compound 1 µM
# [35] = second compound 10 µM, first compound 3.16 µM
# [36] = second compound 10 µM, first compound 10 µM
# 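Further: spheroids exposed to the agents for seven days before readout.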
# 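Wherever viability, T/C is given: percent viability relative to DMSO vehicle control wells taken as 100%.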
structure (smiles),measurement,setting,value
CC(=O)O[C@H]1C(=O)[C@@]2(C)[C@H]([C@H](OC(=O)c3ccccc3)[C@]3(O)C[C@H](OC(=O)[C@H](O)[C@@H](NC(=O)c4ccccc4)c4ccccc4)C(C)=C1C3(C)C)[C@]1(OC(C)=O)CO[C@@H]1C[C@@H]2O + Cc1cnc(CNC(=O)c2c(=O)c3ccc(N4CCCN(C)CC4)nc3n3c2sc2ccccc23)cn1,IC50,second compound 0.0316 µM,< 31.6 nM
same,IC50,second compound 0.1 µM,< 31.6 nM
same,IC50,second compound 0.316 µM,< 31.6 nM
same,IC50,second compound 1 µM,< 31.6 nM
same,IC50,second compound 3.16 µM,< 31.6 nM
same,IC50,second compound 10 µM,< 31.6 nM
same,"viability, T/C",[1],3.55%
same,"viability, T/C",[2],2.41%
same,"viability, T/C",[3],2.38%
same,"viability, T/C",[4],2.61%
same,"viability, T/C",[5],4.35%
same,"viability, T/C",[6],6.47%
same,"viability, T/C",[7],3.6%
same,"viability, T/C",[8],2.87%
same,"viability, T/C",[9],3.34%
same,"viability, T/C",[10],3.44%
same,"viability, T/C",[11],4.23%
same,"viability, T/C",[12],5.96%
same,"viability, T/C",[13],6.14%
same,"viability, T/C",[14],5.32%
same,"viability, T/C",[15],4.53%
same,"viability, T/C",[16],4.82%
same,"viability, T/C",[17],6.03%
same,"viability, T/C",[18],6.11%
same,"viability, T/C",[19],4.85%
same,"viability, T/C",[20],3.94%
same,"viability, T/C",[21],4.08%
same,"viability, T/C",[22],3.75%
same,"viability, T/C",[23],5.24%
same,"viability, T/C",[24],5.33%
same,"viability, T/C",[25],3.56%
same,"viability, T/C",[26],2.87%
same,"viability, T/C",[27],3.36%
same,"viability, T/C",[28],2.75%
same,"viability, T/C",[29],3.86%
same,"viability, T/C",[30],3.56%
same,"viability, T/C",[31],0.08%
same,"viability, T/C",[32],0.11%
same,"viability, T/C",[33],0.1%
same,"viability, T/C",[34],0.09%
same,"viability, T/C",[35],0.1%
same,"viability, T/C",[36],0.11%
C#Cc1c(F)ccc2cc(O)cc(-c3ncc4c(N5CC6CCC(C5)N6)nc(OCC56CCCN5CC(F)C6)nc4c3F)c12 (stereo unspecified) + CN(C)c1ccc(Nc2c3ccc(NC(=O)CCN4CCCC4)cc3nc3cc(NC(=O)CCN4CCCC4)ccc23)cc1,IC50,second compound 0.0316 µM,> 10000 nM
same,IC50,second compound 0.1 µM,> 10000 nM
same,IC50,second compound 0.316 µM,> 10000 nM
same,IC50,second compound 1 µM,> 10000 nM
same,IC50,second compound 3.16 µM,> 10000 nM
same,IC50,second compound 10 µM,1790 nM
same,"viability, T/C",[1],103%
same,"viability, T/C",[2],88.4%
same,"viability, T/C",[3],98.5%
same,"viability, T/C",[4],86.7%
same,"viability, T/C",[5],95.9%
same,"viability, T/C",[6],93.5%
same,"viability, T/C",[7],96.8%
same,"viability, T/C",[8],84.4%
same,"viability, T/C",[9],94.5%
same,"viability, T/C",[10],89%
same,"viability, T/C",[11],90.7%
same,"viability, T/C",[12],96%
same,"viability, T/C",[13],98.2%
same,"viability, T/C",[14],91.2%
same,"viability, T/C",[15],105%
same,"viability, T/C",[16],96.3%
same,"viability, T/C",[17],95.2%
same,"viability, T/C",[18],103%
same,"viability, T/C",[19],87.9%
same,"viability, T/C",[20],89.9%
same,"viability, T/C",[21],98.8%
same,"viability, T/C",[22],96.8%
same,"viability, T/C",[23],95.5%
same,"viability, T/C",[24],102%
same,"viability, T/C",[25],88.5%
same,"viability, T/C",[26],91.1%
same,"viability, T/C",[27],96.8%
same,"viability, T/C",[28],99.4%
same,"viability, T/C",[29],104%
same,"viability, T/C",[30],68.7%
same,"viability, T/C",[31],104%
same,"viability, T/C",[32],106%
same,"viability, T/C",[33],103%
same,"viability, T/C",[34],85%
same,"viability, T/C",[35],16.1%
same,"viability, T/C",[36],0.99%
CC(C)(O)C1CCC(Nc2ccc3ncc(-c4cccc(C(F)(F)F)c4)n3n2)CC1 (stereo unspecified) + Cc1cnc(CNC(=O)c2c(=O)c3ccc(N4CCCN(C)CC4)nc3n3c2sc2ccccc23)cn1,IC50,second compound 0.0316 µM,2060 nM
same,IC50,second compound 0.1 µM,< 31.6 nM
same,IC50,second compound 0.316 µM,< 31.6 nM
same,IC50,second compound 1 µM,< 31.6 nM
same,IC50,second compound 3.16 µM,< 31.6 nM
same,IC50,second compound 10 µM,< 31.6 nM
same,"viability, T/C",[1],103%
same,"viability, T/C",[2],105%
same,"viability, T/C",[3],108%
same,"viability, T/C",[4],97.3%
same,"viability, T/C",[5],22%
same,"viability, T/C",[6],16.9%
same,"viability, T/C",[7],32%
same,"viability, T/C",[8],29.9%
same,"viability, T/C",[9],35.4%
same,"viability, T/C",[10],26%
same,"viability, T/C",[11],5.94%
same,"viability, T/C",[12],7.03%
same,"viability, T/C",[13],8.94%
same,"viability, T/C",[14],10.5%
same,"viability, T/C",[15],9.21%
same,"viability, T/C",[16],9.55%
same,"viability, T/C",[17],3.64%
same,"viability, T/C",[18],2.73%
same,"viability, T/C",[19],6.09%
same,"viability, T/C",[20],5.79%
same,"viability, T/C",[21],5.01%
same,"viability, T/C",[22],4.88%
same,"viability, T/C",[23],0.44%
same,"viability, T/C",[24],0.4%
same,"viability, T/C",[25],3.22%
same,"viability, T/C",[26],4.22%
same,"viability, T/C",[27],3.14%
same,"viability, T/C",[28],0.95%
same,"viability, T/C",[29],0.08%
same,"viability, T/C",[30],0.08%
same,"viability, T/C",[31],0.04%
same,"viability, T/C",[32],0.09%
same,"viability, T/C",[33],0.14%
same,"viability, T/C",[34],0.13%
same,"viability, T/C",[35],0.14%
same,"viability, T/C",[36],0.14%
